Source: US20240316045A1, “CYCLOPROPYLAMIDE COMPOUNDS AGAINST PARASITES IN FISH” (Intervet Inc., priority 2021, published 2024)
Read-outs that look alike come from different tables or passages of the source.

Key:
[1] = test system: Copepodids (juvenile sea lice stage of Lepeophtheirus salmonis); assay: Juvenile sea lice contact assay; settings: read-out: Sea lice inhibition (% of dead+damaged copepodids); for inhibition at 0.1 µM: test concentration 100 nM
Experimental: Copepodids (juvenile sea lice stage of Lepeophtheirus salmonis) were exposed to seawater spiked with declining concentrations of a test compound (dissolved in a DMSO sea-water mixture). Sea lice inhibition (% of dead+damaged copepodids) was assessed after approximately 24 hours of continuous exposure. The vitality of used parasites was confirmed in a negative (solvent) control group.

[2] = test system: Mobile stages of sea lice (pre-adults, adults of Lepeophtheirus salmonis); assay: Adult sea lice contact assay; settings: read-out: EC50 (sea lice inhibition, dead+damaged)
Experimental: Mobile stages of sea lice (i.e., pre-adults, adults of Lepeophtheirus salmonis) were exposed to seawater spiked with declining concentrations of a test compound (dissolved in a PEG sea-water mixture). Sea lice inhibition (% of dead+damaged sea lice) was assessed after approximately 1 and 24 hours of continuous exposure in comparison to a negative (solvent) control group.

[3] = test system: Lepeophtheirus salmonis; assay: Salmon in vivo efficacy trial against sea lice, gavage administration; settings: in Salmo salar
Experimental: Salmon (Salmo salar) were treated once orally by gavage at a dose of 5 mg/kg bodyweight per fish (Day 0). As formulation DMSO 5%/fish oil 95% was used. Salmon of the negative control group received only the excipients of the formulation.
The fish were infested with Lepeophtheirus salmonis copepodids twice before treatment (i.e., around day −28 and day −3) and once after treatment (i.e., day 17). […]
Efficacy is expressed as a % reduction of sea lice in treated groups versus a control group, using the Abbott's formula.

[4] = approx. 24 hours continuous exposure
[5] = pre-adult/adult L. salmonis, assessed after approx. 1 and 24 hours, time of EC50 not stated
[6] = 168 h, read-out: therapeutic efficacy against (pre-)adult sea lice (% reduction vs control, Abbott), single oral gavage 5 mg/kg, count at day 7, day -28 infestation
[7] = 672 h, read-out: therapeutic efficacy against juvenile sea lice (% reduction vs control, Abbott), single oral gavage 5 mg/kg, count around day 28, day -3 infestation
[8] = test concentration 10 nM, approx. 24 hours continuous exposure

Compound	inhibition at 0.1 µM [1, 4] [%]	EC50 [2, 5] [nM]	inhibition in vivo at 5 mg/kg [3, 6] [%]	inhibition in vivo at 5 mg/kg [3, 7] [%]	inhibition at 0.01 µM [1, 8] [%]	other results
O=C(Nc1ccncn1)c1cc(NC(=O)[C@H]2[C@H](c3cc(Cl)cc(Cl)c3)C2(Cl)Cl)ccc1Cl [Compound 1039]	100	1 to 25	80	80	–	–
O=C(Nc1ccccc1)c1cc(NC(=O)[C@H]2[C@H](c3cc(Cl)cc(Cl)c3)C2(Cl)Cl)ccc1Cl [Compound 1099]	–	1 to 10	80	100	100	–
Cc1ccccc1NC(=O)c1cc(NC(=O)[C@H]2[C@H](c3cc(Cl)cc(Cl)c3)C2(Cl)Cl)ccc1Cl [Compound 1100]	–	1 to 10	100	100	100	–
Cc1ccc(NC(=O)[C@H]2[C@H](c3cc(Cl)cc(Cl)c3)C2(Cl)Cl)cc1C(=O)Nc1ccc(F)cc1 [Compound 1101]	100	1 to 10	–	–	–	–
Cc1c(F)cc(NC(=O)[C@H]2[C@H](c3cc(Cl)cc(Cl)c3)C2(Cl)Cl)cc1C(=O)Nc1ncc(F)cc1F [Compound 1368]	–	1 to 10	80	100	100	–
O=C(Nc1c(F)cccc1F)c1cc(NC(=O)[C@H]2[C@H](c3cc(Cl)cc(Cl)c3)C2(Cl)Cl)ccc1Cl [Compound 1370]	–	1 to 10	100	100	100	–
O=C(Nc1cncnc1)c1cc(NC(=O)[C@H]2[C@H](c3cc(Cl)cc(Cl)c3)C2(Cl)Cl)ccc1Cl [Compound 1371]	–	1 to 10	100	100	100	–
O=C(Nc1ncc(F)cc1F)c1cc(NC(=O)[C@H]2[C@H](c3cc(Cl)cc(Cl)c3)C2(Cl)Cl)ccc1F [Compound 1376]	–	≤ 1	100	100	–	inhibition at 10 pM ([1]; test concentration 0.01 nM, approx. 24 hours continuous exposure): 100%; inhibition at 0.0001 µM ([1]; test concentration 0.1 nM, approx. 24 hours continuous exposure): 100%
O=C(Nc1ncc(F)cc1F)c1cc(NC(=O)[C@H]2[C@H](c3cc(Cl)cc(Cl)c3)C2(Cl)Cl)cc(F)c1Cl [Compound 1378]	–	1 to 25	100	100	100	–
O=C(Nc1ncc(F)cc1F)c1cccc(NC(=O)[C@H]2[C@H](c3cc(Cl)cc(Cl)c3)C2(Cl)Cl)c1F [Compound 1379]	100	1 to 25	–	–	–	–
O=C(Nc1ncc(F)cc1F)c1cc(NC(=O)C2C(c3cc(Cl)c(F)c(Cl)c3)C2(Cl)Cl)ccc1Cl (stereo not shown) [Compound 1383]	–	1 to 10	–	–	100	–
O=C(Nc1ncc(F)cc1F)c1cc(NC(=O)C2C(c3cc(C(F)(F)F)cc(C(F)(F)F)c3)C2(Cl)Cl)ccc1Cl (stereo not shown) [Compound 1385]	–	1 to 10	–	–	100	–
O=C(Nc1ccc(F)cc1F)c1cc(NC(=O)C2C(c3cc(C(F)(F)F)cc(C(F)(F)F)c3)C2(Cl)Cl)ccc1F (stereo not shown) [Compound 1387]	100	1 to 10	–	–	–	–
O=C(Nc1ncc(F)cc1F)c1cc(NC(=O)C2C(c3cc(C(F)(F)F)cc(C(F)(F)F)c3)C2(Cl)Cl)cc(F)c1F (stereo not shown) [Compound 1388]	100	1 to 10	–	–	–	–
O=C(Nc1ncc(F)cc1F)c1cc(NC(=O)C2C(c3cc(Cl)cc(C(F)(F)F)c3)C2(Cl)Cl)ccc1Cl (stereo not shown) [Compound 1389]	–	≤ 1	–	–	100	–
O=C(Nc1ncc(F)cc1F)c1cc(NC(=O)C2C(c3cc(Cl)cc(Cl)c3)C2(Cl)Cl)cc(F)c1F (stereo not shown) [Compound 1391]	–	1 to 10	–	–	80	–
O=C(Nc1ncc(F)cc1F)c1cc(NC(=O)[C@H]2[C@H](c3cc(F)c(F)c(F)c3)C2(Cl)Cl)ccc1Cl [Compound 1392]	–	–	–	–	–	inhibition at 0.01 µM ([1]; 24 h): 100%; EC50 [2]: ≤ 1 nM; inhibition in vivo at 5 mg/kg ([3]; po, 168 h, read-out: therapeutic efficacy against (pre-)adult sea lice (% reduction vs control, Abbott)): 100%; inhibition in vivo at 5 mg/kg ([3]; po, 672 h, read-out: therapeutic efficacy against juvenile sea lice (% reduction vs control, Abbott)): 80%
O=C(Nc1ncc(F)cc1F)c1cc(NC(=O)[C@H]2[C@H](c3cc(F)c(F)c(F)c3)C2(Cl)Cl)ccc1F [Compound 1393]	–	≤ 1	100	80	100	–
O=C(Nc1ncc(F)cc1F)c1c(F)ccc(NC(=O)[C@H]2[C@H](c3cc(Cl)cc(Cl)c3)C2(Cl)Cl)c1F [Compound 1394]	100	1 to 10	100	100	–	–
